Experimental data from patent publication US4719046A, “Crysene derivatives” (Burroughs Wellcome Co., priority 1984, dated 1988).
Where a name gives a salt, the structure may show the parent alone. Read-outs that look alike come from different tables or passages of the source.

Experiments:
[1] = test system: melanotic melanoma B16; test: Melanotic Melanoma B16 test; format: in vivo, mouse (B6C3-F1); settings: median survival T/C; IP days 1, 5, 9; active if >125%; dose mg/kg: 1C 100, 6G 50, 3 70, 2 75, 18B 70
Text: (§1) Methods for evaluating the antitumor activity of these compounds are essentially those used in the Tumor Panel by the Developmental Therapeutics Program, Division of Cancer Treatment, National Cancer Institute, A. Goldin, et al., Methods in Cancer Research, Vol. XVI, p. 165, Academic Press (1979). Some modifications, in dose level and schedule have been made to increase the testing efficiency.
(§2) CD2-F1 mice, of the same sex, weighing 20±3 g, are used for this test. Control and test animals are injected intraperitoneally with a suspension of ~10^6 viable P388/0 tumor cells on day 0. In each test, several dose levels which bracket the LD20 of the compound are evaluated; each dose level group contains six animals. The test compounds are prepared either in physiologic saline containing 0.05% Tween 80 or distilled water containing 5% dextrose and are administered intraperitoneally on days 1, 5, and 9 relative to tumor implant. Doses are on a mg/kg basis according to individual animals' body weights. The day of death for each animal is recorded, the median identified for each group and the ratios of median survival time for treated (T)/control (C) groups are calculated. The criterion for activity is T/C×100≥120%.
B6C3-F1 mice of the same sex, weighing 20±3 g, are used for this test. A suspension of B16 cells is prepared from a non-necrotic portion of solid tumor tissue obtained from a passage mouse. One gram of tumor is homogenized in 9 mL ice-cold Earle's salts solution and filtered through 1000 mesh screen to remove debris. 0.5 mL of the resulting brei is injected intraperitoneally into each animal. Dosing is carried out as in the P388/0 and L1210 tests. Days of death are recorded for a 60 day period and T/C ratio calculated as in the P388/0 and L1210 tests. The criterion for activity is T/C×100>125%.

[2] = test system: Candida albicans (CN 1863); test: Candida albicans antifungal test; format: cell-based; settings: Wellcotest sensitivity test agar plus 7% lysed horse blood, CN1863
Text: Antifungal testing against Candida albicans (CN 1863) was done with slight modifications using a combination of broth and agar dilution assays as outlined in Laboratory Handbook of Medical Mycology, Chapter 6, pages 441-446, M. R. McGinnis, Academic Press, New York, NY, 1980
Medium: Wellcotest ® sensitivity test agar plus 7% lysed horse blood.

[3] = test system: Streptococcus pyogenes (CN10); test: Antibacterial test, Streptococcus pyogenes (agar dilution); format: cell-based
Text: (§3) Anitbacterial testing against […] (S3264) and Streptococcus pyogenes (CN10) was done with slight modifications using standard agar dilution assays as outlined in Manual of Clinical Microbiology Second Ed., E. H. Lennette. E. H. Spaulding and J. P. Traunt Eds., American Society for Microbiology, Washington, DC, 1974

[4] = test system: Mycoplasma smegmatis; test: Antibacterial test, Mycoplasma smegmatis (agar dilution); format: cell-based
Text: as §3

[5] = test system: CD2-F1 mice; test: LD20 in the P388/0 test mice; format: in vivo, mouse (CD2-F1); settings: IP days 1, 5, 9, doses on a mg/kg basis
Procedure: as §2
^A Values in parentheses are the highest nontoxic dose where the
LD20 was not determined.

[6] = test system: lymphocytic leukemia L1210; test: Lymphocytic Leukemia L1210 Test; format: in vivo, mouse (CD2-F1); settings: median survival T/C; 120 mg/kg IP days 1, 5, 9; active if ≥125%
Text: as §1, §2
The protocol for this test is identical to that for P388/0, except that the number of L1210 cells implanted on day 0 is ~10^5 /mouse. […]

[7] = test system: Lewis lung carcinoma; test: Lewis Lung Carcinoma Test; format: in vivo, mouse (BD-F1; tumor from C57B1/6); settings: median survival T/C; 105 mg/kg days 1, 5, 9; active if ≥140%
Text: as §1
CD2-F1 mice, of the same sex, weighing 20±3 g, are used for this test. Control and test animals are injected intraperitoneally with a suspension of ~10^6 viable P388/0 tumor cells on day 0. In each test, several dose levels which bracket the LD20 of the compound are evaluated; each dose level group contains six animals. […] The day of death for each animal is recorded, the median identified for each group and the ratios of median survival time for treated (T)/control (C) groups are calculated. […]
This tumor arose spontaneously in the lung of a C57B1/6 mouse and is maintained by subcutaneous passage in that strain. […] In each test, several dose levels which bracket the LD20 for the compound are evaluated. […] The day of death for each animal is recorded, the median identified for each group and the ratios of median survival time for treated (T)/control (C) groups are calculated. […]

[8] = test system: colon 38 carcinoma; test: Colon 38 Carcinoma Test; format: in vivo, mouse (C57B1/6); settings: tumor weight T/C at day 20; 120 mg/kg IP days 1, 5, 9; active if ≤42%
Text: as §1
This chemically-induced tumor arose in a C57B1/6 mouse and is maintained as a solid tumor in that mouse strain. The subcutaneously growing solid tumor is aseptically excised from passage mice and placed in sterile saline. The tumor is trimmed free of visible necrotic and connective tissue, then divided into 2-3 mm cubes. A cube is implanted subcutaneously in the ventral thoracie region with a sterile trochar on day 0. In each test several dose levels which bracket the LD20 for the compound are evaluated. Ten animals are included in each dose level group and thirty animals in the untreated control group. The test compounds are prepared either in physiologic saline containing 0.05% Tween 80 or distilled water containing 5% dextrose and are administered intraperitoneally on days 1, 5 and 9 after tumor implant. […] At day 20, the animals are sacrificed and the longest (L) and shortest (W) dimensions of each tumor measured with vernier calipers. Tumor weight is calculated from the formula (L× (W)^2 /2). […]

[9] = test system: M5076 sarcoma; test: M5076 Sarcoma Test; format: in vivo, mouse (B6C3-F1); settings: median survival T/C; 105 mg/kg IP days 1, 5, 9; active if ≥125%
Text: as §1, §2
This sarcoma arose as a solid tumor in the ovary of a C57B1/6 mouse and was subsequently converted to the ascitic form for intraperitoneal use. […]

[10] = test system: lymphocytic leukemia P388/0; test: Lymphocytic Leukemia P388/0 Test; format: in vivo, mouse (CD2-F1); settings: median survival T/C; IP days 1, 5, 9; active if ≥120%; optimal dose mg/kg: 1B 121, 1C 115, 2 100, 3 100, 6G 65, 18B 88, 19H 110, 6H 60, 7 110, 9 300, 10B 1013, 11C 150, 12G 90, 5F 225, 13D 303, 14 196, 15B 250, 16 1012, 4B 180
Text: as §1, §2

[11] = test system: Herpes simplex 1/vero; test: Herpes simplex 1/vero plaque inhibition screen; format: cell-based
Text: Antiviral testing against Herpes simplex 1/vero was done using plaque inhibition methods as outlined in P. Collins and D. J. Bauer, Proc. N.Y. Acad. Sci. 284, 49 (1977) and by plaque reduction methods as outlined in P. Collins and D. J. Bauer, J. Antimicrobial Chemotherapy 3, Supplement A, 73(1977). The column headings labeled Score, Toxicity, and Zone of Inhibition refer to the plaque inhibition screen while the IC50 heading to the plaque reduction screen.

C[C@H](O)[C@@](C)(CO)NCc1cc2c3ccccc3ccc2c2ccccc12 (relative stereo) [Example 6G, (+-)(2R*,3S*)-2-(6-Chrysenylmethylamino)-2-methyl-1,3-butanediol hydrochloride.1/3H2 O]
T/C × 100% Excluding 60 day Survivors [1]: +160% | MIC [2]: 100 µg/mL | MIC ([3]; agar dilution, CN10, read-out: MIC): 10 µg/mL | MIC [4]: ≤ 3 µg/mL | LD20 [5]: 53 mg/kg

CC(CO)(CO)NCc1cc2c3ccccc3ccc2c2ccccc12 [Example 1C, 2-((6-Chrysenylmethyl)amino)-2-methyl-1,3-propanediol methanesulfonate]
T/C × 100% Excluding 30 day Survivors [6]: +252% | T/C × 100% Excluding 60 day Survivors [1]: +146% | T/C × 100% Excluding 60 day Survivors [7]: +191% | T/C × 100% [8]: 36% | T/C × 100% [9]: +168% | LD20 [5]: 105 mg/kg

CS(=O)(=O)O.C[C@H](O)C(NCc1cc2c3ccccc3ccc2c2ccccc12)[C@@H](C)O (stereo partly drawn) [Example 13D, meso-3-((6-Chrysenylmethyl)amino)-2,4-pentanediol methanesulfonate]
T/C × 100% (Excluding 30 Day Survivors) [10]: +200% | LD20 [5]: 675 mg/kg

CC(CO)(CO)NCc1cc2c3ccccc3ccc2c2ccccc12.Cl [Example 1B, 2-((6-Chrysenylmethyl)amino)-2-methyl-1,3-propanediol hydrochloride]
Zone of Inhibition [11]: 43 | MIC [3]: ≤ 10 µg/mL | MIC [4]: ≤ 10 µg/mL | LD20 [5]: 140 mg/kg
